The structures appear in SMILES notation.

One experiment has as its system HCT116 MTAP null cells. The experiment can be described thus: HCT116 MTAP null cell line proliferation / cell viability (CellTiter-Glo, 6 days). The class given is cell-based. To be noted: 144 h; HCT116 MTAP null cells, 6 days treatment, CellTiter-Glo cell viability; read-out: HCT-116 MTAP null IC50. The essentials:
(§1)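 Viability read by CellTiter-Glo luminescence after 6 days of compound treatment of HCT116 WT and MTAP-null cells (RPMI 1640, 10% FBS). Dose series were 1:3 steps from 1 or 10 μM (8–9 points), or 1:2 steps from 10 or 50 μM (22 points). IC50 from 4-parameter logistic or fixed-slope sigmoidal fit.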

A further experiment relates to HCT116 WT cells. As to the kind of experiment: HCT116 WT (parent) cell line proliferation / cell viability (CellTiter-Glo, 6 days). The class given is cell-based. To be noted: Homo sapiens, HCT-116, 144 h, 6 days treatment. The essentials: as §1
In general terms: ATP-based viability assays read luminescence as a measure of living cells.

For `CN(C(=O)c1cc2c3c(c(N)nc2cn1)COC3)[C@@H]1COc2cc(-c3cnn(C(F)(F)F)c3)ccc21` [Example 457, 4-amino-N-methyl-N-((3S)-6-(1-(trifluoromethyl)-1H-pyrazol-4-yl)-2,3-dihydro-1-benzofuran-3-yl)-1,3-dihydrofuro[3,4-c][1,7]naphthyridine-8-carboxamide], the IC50 in the experiment on HCT116 MTAP null cells came to 63 nM; in the experiment on HCT116 WT cells, 3770 nM.
For `CN(C(=O)c1cc2c3c(c(N)nc2cc1F)COC3)[C@@H]1COc2cc(S(C)(=N)=O)ccc21` (stereo partly drawn) [Example 462, 4-amino-7-fluoro-N-methyl-N-((3S)-6-(S-methylsulfonimidoyl)-2,3-dihydro-1-benzofuran-3-yl)-1,3-dihydrofuro[3,4-c]quinoline-8-carboxamide] the same measures were 237 nM and 11700 nM.
In the case of `C[C@H]1OCc2c1c(N)nc1cc(F)c(C(=O)N(C)[C@@H]3COc4cc(C(F)(F)F)ccc43)cc21` [Example 466, (3R)-4-amino-7-fluoro-N,3-dimethyl-N-((3S)-6-(trifluoromethyl)-2,3-dihydro-1-benzofuran-3-yl)-1,3-dihydrofuro[3,4-c]quinoline-8-carboxamide], the values for the IC50 with HCT116 MTAP null cells and with HCT116 WT cells were 9 nM and 245 nM, respectively.
For `C[C@H]1OCc2c1c(N)nc1cc(F)c(C(=O)N(C3CC3)[C@@H]3COc4cc(C(F)(F)F)ccc43)cc21` [Example 467, (3R)-4-amino-N-cyclopropyl-7-fluoro-3-methyl-N-((3S)-6-(trifluoromethyl)-2,3-dihydro-1-benzofuran-3-yl)-1,3-dihydrofuro[3,4-c]quinoline-8-carboxamide] the same measures were 10 nM and 418 nM.
The corresponding values for `CC(C)N(C(=O)c1cc2c3c(c(N)nc2cc1F)[C@@H](C)OC3)[C@@H]1COc2cc(C(F)(F)F)ccc21` [Example 468, (3R)-4-amino-7-fluoro-3-methyl-N-(2-propanyl)-N-((3S)-6-(trifluoromethyl)-2,3-dihydro-1-benzofuran-3-yl)-1,3-dihydrofuro[3,4-c]quinoline-8-carboxamide] are 114 nM and 2690 nM.
For `CC(C)N(C(=O)c1cc2c3c(c(N)nc2cc1F)[C@@H](C)OC3)[C@H]1COc2cc(C(F)(F)F)ccc21` [Example 469, (3R)-4-amino-7-fluoro-3-methyl-N-(2-propanyl)-N-((3R)-6-(trifluoromethyl)-2,3-dihydro-1-benzofuran-3-yl)-1,3-dihydrofuro[3,4-c]quinoline-8-carboxamide] the same measures were 2730 nM and 19700 nM.
On to `C[C@H]1OCc2c1c(N)nc1cc(F)c(C(=O)N(C3CCC3)[C@@H]3COc4cc(C(F)(F)F)ccc43)cc21` [Example 470, (3R)-4-amino-N-cyclobutyl-7-fluoro-3-methyl-N-((3S)-6-(trifluoromethyl)-2,3-dihydro-1-benzofuran-3-yl)-1,3-dihydrofuro[3,4-c]quinoline-8-carboxamide], for which the 50% inhibitory concentration (IC50) in the experiment on HCT116 MTAP null cells is 27 nM; in the experiment with HCT116 WT cells, 256 nM.
For `C[C@H]1OCc2c1c(N)nc1cc(F)c(C(=O)N(C3CCC3)[C@H]3COc4cc(C(F)(F)F)ccc43)cc21` [Example 471, (3R)-4-amino-N-cyclobutyl-7-fluoro-3-methyl-N-((3R)-6-(trifluoromethyl)-2,3-dihydro-1-benzofuran-3-yl)-1,3-dihydrofuro[3,4-c]quinoline-8-carboxamide] the same measures were 574 nM and 13900 nM.
Turning to `CN(C(=O)c1ccc2nc(N)c3cnn(C)c3c2c1)[C@@H]1COc2cc(C(F)(F)F)ccc21` [Example 473, 4-amino-N,1-dimethyl-N-((3S)-6-(trifluoromethyl)-2,3-dihydro-1-benzofuran-3-yl)-1H-pyrazolo[4,3-c]quinoline-8-carboxamide], the IC50 in the experiment on HCT116 MTAP null cells worked out at 15 nM; in the experiment on HCT116 WT cells it was 349 nM.
As for `CN(C(=O)c1cc2c(cn1)nc(N)c1cnn(C)c12)[C@@H]1COc2cc(Cl)c(Cl)cc21` [Example 474, 4-amino-N-((3S)-5,6-dichloro-2,3-dihydro-1-benzofuran-3-yl)-N,1-dimethyl-1H-pyrazolo[4,3-c][1,7]naphthyridine-8-carboxamide], the IC50 in the experiment on HCT116 MTAP null cells was determined as 8 nM; with HCT116 WT cells, 174 nM.
On to `CN(C(=O)c1cc2c(cc1F)nc(N)c1cnn(C)c12)[C@@H]1COc2cc(F)c(F)cc21` [Example 475, 4-amino-N-((3S)-5,6-difluoro-2,3-dihydro-1-benzofuran-3-yl)-7-fluoro-N,1-dimethyl-1H-pyrazolo[4,3-c]quinoline-8-carboxamide], for which the IC50 in the experiment on HCT116 MTAP null cells came out at 8 nM; with HCT116 WT cells it was 199 nM.
For `CN(C(=O)c1cc2c(cc1F)nc(N)c1cnn(C)c12)[C@@H]1COc2cc(Cl)c(Cl)cc21` [Example 476, 4-amino-N-((3S)-5,6-dichloro-2,3-dihydro-1-benzofuran-3-yl)-7-fluoro-N,1-dimethyl-1H-pyrazolo[4,3-c]quinoline-8-carboxamide] the same measures were 6 nM and 125 nM.
The corresponding values for `CN(C(=O)c1cc2c(cc1F)nc(N)c1cnn(C)c12)[C@H]1COc2cc(Cl)c(Cl)cc21` [Example 477, 4-amino-N-((3R)-5,6-dichloro-2,3-dihydro-1-benzofuran-3-yl)-7-fluoro-N,1-dimethyl-1H-pyrazolo[4,3-c]quinoline-8-carboxamide] are 92 nM and 2530 nM.
Consider `CN(C(=O)c1cc2c(cc1F)nc(N)c1cnn(C)c12)[C@@H]1COc2cc(OC(F)(F)F)ccc21` [Example 478, 4-amino-7-fluoro-N,1-dimethyl-N-((3S)-6-(trifluoromethoxy)-2,3-dihydro-1-benzofuran-3-yl)-1H-pyrazolo[4,3-c]quinoline-8-carboxamide], for which the IC50 in the experiment with HCT116 MTAP null cells was 5 nM; in the experiment with HCT116 WT cells, 133 nM.
`CN(C(=O)c1cc2c(cc1Cl)nc(N)c1cnn(C)c12)[C@@H]1COc2cc(C(F)(F)F)ccc21` [Example 480, 4-amino-7-chloro-N,1-dimethyl-N-((3S)-6-(trifluoromethyl)-2,3-dihydro-1-benzofuran-3-yl)-1H-pyrazolo[4,3-c]quinoline-8-carboxamide]: the IC50 came to 4 nM in the experiment on HCT116 MTAP null cells and 43 nM with HCT116 WT cells.
The corresponding values for `CN(C(=O)c1cc2c(cc1Cl)nc(N)c1cnn(C)c12)[C@@H]1COc2cc(OC(F)(F)F)ccc21` [Example 481, 4-amino-7-chloro-N,1-dimethyl-N-((3S)-6-(trifluoromethoxy)-2,3-dihydro-1-benzofuran-3-yl)-1H-pyrazolo[4,3-c]quinoline-8-carboxamide] are 5 nM and 45 nM.
Turning to `CN(C(=O)c1cc2c(cc1F)nc(N)c1c2cnn1C)[C@@H]1COc2cc(Cl)c(Cl)cc21` [Example 483, 4-amino-N-((3S)-5,6-dichloro-2,3-dihydro-1-benzofuran-3-yl)-7-fluoro-N,3-dimethyl-3H-pyrazolo[3,4-c]quinoline-8-carboxamide], the results for the IC50 with HCT116 MTAP null cells and in the experiment on HCT116 WT cells were 81 nM and 5280 nM, respectively.
For `CN(C(=O)c1cc2c(cc1Cl)nc(N)c1c2cnn1C)[C@@H]1COc2cc(C(F)(F)F)ccc21` [Example 486, 4-amino-7-chloro-N,3-dimethyl-N-((3S)-6-(trifluoromethyl)-2,3-dihydro-1-benzofuran-3-yl)-3H-pyrazolo[3,4-c]quinoline-8-carboxamide] the same measures were 78 nM and 4880 nM.
For `CN(C(=O)c1cc2c(cc1Cl)nc(N)c1c2cnn1C)[C@@H]1COc2cc(OC(F)(F)F)ccc21` [Example 487, 4-amino-7-chloro-N,3-dimethyl-N-((3S)-6-(trifluoromethoxy)-2,3-dihydro-1-benzofuran-3-yl)-3H-pyrazolo[3,4-c]quinoline-8-carboxamide], the IC50 was found to be 47 nM in the experiment on HCT116 MTAP null cells and 2870 nM with HCT116 WT cells.
Turning to `C[C@H]1OCc2c1c(N)nc1ccc(C(=O)N(C)[C@@H]3COCc4nc(C(F)(F)F)ccc43)cc21` [Example 488, (3R)-4-amino-N,3-dimethyl-N-((5S)-2-(trifluoromethyl)-5,8-dihydro-6H-pyrano[3,4-b]pyridin-5-yl)-1,3-dihydrofuro[3,4-c]quinoline-8-carboxamide], the IC50 in the experiment on HCT116 MTAP null cells was 13 nM; in the experiment on HCT116 WT cells, 682 nM.
For `CN(C(=O)c1cc2c3c(c(N)nc2cn1)COC3)[C@@H]1COCc2cc(C#N)ccc21` [Example 489, 4-amino-N-((4S)-7-cyano-3,4-dihydro-1H-2-benzopyran-4-yl)-N-methyl-1,3-dihydrofuro[3,4-c][1,7]naphthyridine-8-carboxamide] the same measures were 49 nM and 2220 nM.
The corresponding values for `CN(C(=O)c1cc2c3c(c(N)nc2cn1)COC3)[C@@H]1COCc2cc(C(F)(F)F)ccc21` [Example 490, 4-amino-N-methyl-N-((4S)-7-(trifluoromethyl)-3,4-dihydro-1H-2-benzopyran-4-yl)-1,3-dihydrofuro[3,4-c][1,7]naphthyridine-8-carboxamide] are 33 nM and 1030 nM.
The corresponding values for `CN(C(=O)c1cc2c3c(c(N)nc2cn1)COC3)[C@@H]1COCc2nc(C(F)(F)F)ccc21` [Example 491, 4-amino-N-methyl-N-((5S)-2-(trifluoromethyl)-5,8-dihydro-6H-pyrano[3,4-b]pyridin-5-yl)-1,3-dihydrofuro[3,4-c][1,7]naphthyridine-8-carboxamide] are 43 nM and 2060 nM.
With `CN(C(=O)c1cc2c3c(c(N)nc2cn1)COC3)[C@@H]1COCc2cc(C(F)(F)F)ncc21` [Example 492, 4-amino-N-methyl-N-((4S)-7-(trifluoromethyl)-3,4-dihydro-1H-pyrano[4,3-c]pyridin-4-yl)-1,3-dihydrofuro[3,4-c][1,7]naphthyridine-8-carboxamide], the IC50 with HCT116 MTAP null cells was 706 nM; with HCT116 WT cells, 31400 nM.

The IC50 is the midpoint of a concentration-inhibition curve.

The values above are taken from patent US20240124442A1, “TRICYCLIC-AMIDO-BICYCLIC PRMT5 INHIBITORS” (AMGEN INC., priority 2021, published 2024).
